From US20080096981A1, “Antibodies against inducible TH2 cell factors” (Genaera Corporation, priority 1999, published 2008)
“Also recorded” adds a separate entry of the source.

B1: IL-9: recombinant murine IL-9, TH2 associated cytokine (protein, UniProt P15247 19-144, looked up)
Interleukin-9: QRCSTTWGIRDTNYLIENLKDDPPSKCSCSGNVTSCLCLSVPTDDCTTPCYREGLLQLTNATQKSRLLPVFHRVKRIVEVLKNITCPSFSCEKPCNQTMAGNTLSFLKSLLGTFQKTEMQRQKSRP

System: TH2AF1
Assay: TH2AF1 expression in lung of C57BL/6 mice after intratracheal instillation of recombinant cytokines
Format: in vivo, mouse
Settings: recombinant cytokine instilled into trachea of C57BL/6 mice, FIG. 5
Procedure: To confirm that the expression of IL-9 was critically related to the expression of TH2AF1 and to control for genetic background specifically, recombinant murine IL-9 was introduced into the lung of murine strain C57BL/6. Recombinant IL-9 was instilled into the trachea of anesthetized mice by addition of 50 μl of a 0.1 mg/ml IL-9 solution or vehicle alone (0.1% bovine serum albumin) daily for ten days. After ten days, the mice were euthanized and lungs extracted for either RNA expression analysis using Trizol as described by the manufacturer (Gibco-BRL) or Western blot analysis to determine levels of IL-9 instilled.
Expression of TH2AF1 RNA was measured as described in Example 3. […] Ribosomal RNAs (rRNA, lower panel) were stained using ethidium bromide (lower panel) to control for RNA loading.

Molecule | induction of TH2AF1 expression in the lung (steady state mRNA)
interferon gamma: recombinant TH1 associated cytokine | did not induce and not
B1 | expressed; also recorded: induced the expression
